“And” between values parts separate entries of the source, which are not always exact repeats. Equal entries are not always repeated. Where two headings read alike, the source gives them in different places. Marks after values point to notes of the source that are not given here.
What was measured:
QTc interval [1] = experiment: Thorough QT study, single oral doses
[2] = Drug interaction: effect of co-administered medication on vibegron PK; type: in vivo, human
Source text: However, these interactions are not expected to be clinically significant.

[3] = Effect of food on oral absorption; type: in vivo, human; conditions: for mean AUC0-24 with food compared to fasted state / mean Cmax with food compared to fasted state: 150 mg multiple doses, middle-aged and elderly females
QTc interval [4] = conditions: human, in vivo, 400 mg
β1-AR = target: T1, β1-AR (Homo sapiens, UniProt P08588); experiment: Competition binding assay, membranes with recombinant β1-AR
T1 construct: expressed in transfected cells; membranes prepared from them
T1 sequence (P08588 whole entry): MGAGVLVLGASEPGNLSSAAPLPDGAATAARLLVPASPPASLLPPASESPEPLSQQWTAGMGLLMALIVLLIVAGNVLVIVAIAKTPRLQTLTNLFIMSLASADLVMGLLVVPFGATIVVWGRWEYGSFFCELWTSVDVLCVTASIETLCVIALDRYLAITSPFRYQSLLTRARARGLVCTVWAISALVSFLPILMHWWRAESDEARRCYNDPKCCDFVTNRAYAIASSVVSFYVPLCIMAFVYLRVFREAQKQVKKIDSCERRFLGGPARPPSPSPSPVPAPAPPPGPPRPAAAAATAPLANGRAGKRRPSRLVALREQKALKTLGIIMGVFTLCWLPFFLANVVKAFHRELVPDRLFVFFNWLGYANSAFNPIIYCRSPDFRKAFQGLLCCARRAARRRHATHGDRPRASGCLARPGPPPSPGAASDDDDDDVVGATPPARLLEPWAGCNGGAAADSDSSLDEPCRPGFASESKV

Plasma protein binding = type: in vitro ADME; conditions: human, plasma
human plasma proteins = experiment: Plasma protein binding; type: in vitro ADME
healthy subjects = experiment: Phase 1 safety data; type: in vivo
Description: (§1) Exposure, and therefore risk of adverse-events can be further reduced with a 50 mg dose.

[5] = Dose-Cmax and dose-AUC models and simulations from Phase 1 data; set-up: species or system human
Description: as §1

[6] = PK in patients with renal impairment; conditions: for AUC0-inf, geometric least squares mean / Apparent terminal t1/2, geometric mean (% geometric CV) / CL/F, geometric least squares mean / CLR, geometric mean (% geometric CV) / Cmax, geometric least squares mean / Fe[urine]48 hr, geometric mean (% geometric CV) / Tmax (median): single dose 100 mg
Source text: The relationship between clearance and renal function was modeled using linear regression.

patients with OAB = experiment: Phase 3 open-label 52-week study in OAB; type: in vivo, human; conditions: 50 mg or 100 mg once daily, 52-week treatment period
Description: After eight weeks, the dose could be increased to 100 mg once daily as clinically indicated.

[7] = human, in vivo
[8] = vibegron 100 mg single dose with multiple doses of 240 mg or 180 mg diltiazem
[9] = 50 mg with high-fat meal, non-Japanese young males
[10] = 50 mg with standard Japanese breakfast, Japanese young males
[11] = 150 mg multiple doses with food, middle-aged females, Day 14
[12] = multiple dose 150 mg, day 14, non-Japanese middle-aged females, fasted
[13] = healthy matched control subjects

Compound: O=C(Nc1ccc(C[C@@H]2CC[C@H]([C@H](O)c3ccccc3)N2)cc1)[C@@H]1CCc2nccc(=O)n21 [Vibegron, (6S)—N-[4-[[(2S,5R)-5-[(R)-hydroxy(phenyl)methyl]pyrrolidin-2-yl]methyl]phenyl]-4-oxo-7,8-dihydro-6H-pyrrolo[1,2-a]pyrimidine-6-carboxamide]
- AUC, mean ± SD (QTc interval [1]; single dose 200 mg): 2430 ± 974 ng·h/mL
- Maximum mean placebo corrected change from baseline RR interval (QTc interval [1]; single dose 200 mg): -84.36 ms
- Maximum mean placebo corrected change from baseline diastolic BP (QTc interval [1]; single dose 200 mg): 2.42 mmHg
- Maximum mean placebo corrected change from baseline systolic BP (QTc interval [1]; single dose 200 mg): 2.20 mmHg
- QTcF LS mean difference from placebo (QTc interval [1]; single dose 200 mg, 0.5 hour): 2.90 ms
- QTcF change from baseline, LS mean (QTc interval [1]; single dose 200 mg, 0.5 hour): 1.90 ms
- QTcF change from baseline, LS mean (QTc interval [1]; single dose 200 mg, 1 hour): 4.87 ms
- QTcF LS mean difference from placebo (QTc interval [1]; single dose 200 mg, 1 hour (maximum)): 4.98 (3.07, 6.88) msec and 4.98 msec
- QTcF LS mean difference from placebo (QTc interval [1]; single dose 200 mg, 2 hour): 2.14 ms
- QTcF change from baseline, LS mean (QTc interval [1]; single dose 200 mg, 2 hour): 2.06 ms
- QTcF LS mean difference from placebo (QTc interval [1]; single dose 200 mg, 3 hour): 0.40 ms
- QTcF change from baseline, LS mean (QTc interval [1]; single dose 200 mg, 3 hour): 1.14 ms
- QTcF LS mean difference from placebo (QTc interval [1]; single dose 200 mg, 4 hour): -0.83 ms
- QTcF change from baseline, LS mean (QTc interval [1]; single dose 200 mg, 4 hour): -0.40 ms
- QTcF LS mean difference from placebo (QTc interval [1]; single dose 200 mg, 6 hour): -1.26 ms
- QTcF change from baseline, LS mean (QTc interval [1]; single dose 200 mg, 6 hour): -6.89 ms
- QTcF LS mean difference from placebo (QTc interval [1]; single dose 200 mg, 8 hour): -1.24 ms
- QTcF change from baseline, LS mean (QTc interval [1]; single dose 200 mg, 8 hour): -9.59 ms
- QTcF LS mean difference from placebo (QTc interval [1]; single dose 200 mg, 10 hour): -2.67 ms
- QTcF change from baseline, LS mean (QTc interval [1]; single dose 200 mg, 10 hour): -8.82 ms
- QTcF LS mean difference from placebo (QTc interval [1]; single dose 200 mg, 12 hour): -3.72 ms
- QTcF change from baseline, LS mean (QTc interval [1]; single dose 200 mg, 12 hour): -6.82 ms
- QTcF LS mean difference from placebo (QTc interval [1]; single dose 200 mg, 23.5 hour): 0.38 ms
- QTcF change from baseline, LS mean (QTc interval [1]; single dose 200 mg, 23.5 hour): -2.15 ms
- Maximum mean placebo corrected change from baseline RR interval (QTc interval [1]; single dose 400 mg): -162.45 ms
- Maximum mean placebo corrected change from baseline diastolic BP (QTc interval [1]; single dose 400 mg): 3.99 mmHg
- Maximum mean placebo corrected change from baseline systolic BP (QTc interval [1]; single dose 400 mg): 3.97 mmHg
- QTcF LS mean difference from placebo (QTc interval [1]; single dose 400 mg, 0.5 hour): 3.37 ms
- QTcF change from baseline, LS mean (QTc interval [1]; single dose 400 mg, 0.5 hour): 2.37 ms
- QTcF change from baseline, LS mean (QTc interval [1]; single dose 400 mg, 1 hour): 4.49 ms
- QTcF LS mean difference from placebo (QTc interval [1]; single dose 400 mg, 1 hour (maximum)): 4.60 (2.71, 6.48) msec and 4.60 msec
- QTcF LS mean difference from placebo (QTc interval [1]; single dose 400 mg, 2 hour): 0.81 ms
- QTcF change from baseline, LS mean (QTc interval [1]; single dose 400 mg, 2 hour): 0.73 ms
- QTcF LS mean difference from placebo (QTc interval [1]; single dose 400 mg, 3 hour): -1.04 ms
- QTcF change from baseline, LS mean (QTc interval [1]; single dose 400 mg, 3 hour): -0.30 ms
- QTcF LS mean difference from placebo (QTc interval [1]; single dose 400 mg, 4 hour): -2.96 ms
- QTcF change from baseline, LS mean (QTc interval [1]; single dose 400 mg, 4 hour): -2.53 ms
- QTcF LS mean difference from placebo (QTc interval [1]; single dose 400 mg, 6 hour): -2.70 ms
- QTcF change from baseline, LS mean (QTc interval [1]; single dose 400 mg, 6 hour): -8.33 ms
- QTcF LS mean difference from placebo (QTc interval [1]; single dose 400 mg, 8 hour): -3.24 ms
- QTcF change from baseline, LS mean (QTc interval [1]; single dose 400 mg, 8 hour): -11.60 ms
- QTcF LS mean difference from placebo (QTc interval [1]; single dose 400 mg, 10 hour): -4.14 ms
- QTcF change from baseline, LS mean (QTc interval [1]; single dose 400 mg, 10 hour): -10.29 ms
- QTcF LS mean difference from placebo (QTc interval [1]; single dose 400 mg, 12 hour): -4.00 ms
- QTcF change from baseline, LS mean (QTc interval [1]; single dose 400 mg, 12 hour): -7.10 ms
- QTcF LS mean difference from placebo (QTc interval [1]; single dose 400 mg, 23.5 hour): -0.34 ms
- QTcF change from baseline, LS mean (QTc interval [1]; single dose 400 mg, 23.5 hour): -2.87 ms
- effect on QTc or blood pressure (QTc interval [1]; thorough QT study): no clinically meaningful effect on QTc or blood pressure
- effect of tolterodine ER 4 mg on the pharmacokinetics of vibegron ([2]; in vivo): no effect
- Cmax of vibegron, geometric mean ([2]; vibegron 100 mg single dose + diltiazem ER 240 mg QD): 167 ng/mL
- GM AUC0-inf increase [2, 8]: 63%
- GM Cmax increase [2, 8]: 68%
- GM t1/2 ([2]; vibegron with diltiazem): 75.4 h
- delay in Tmax vs fasted [3, 9]: ~1 h
- reduction in AUC0-inf vs fasted [3, 9]: 46%
- reduction in Cmax vs fasted [3, 9]: 67%
- reduction in AUC0-inf vs fasted [3, 10]: 37%
- reduction in Cmax vs fasted [3, 10]: 52%
- reduction in mean AUC0-24 hr vs fasted [3, 11]: 20%
- reduction in mean Cmax vs fasted [3, 11]: 47%
- mean AUC0-24 with food compared to fasted state ([3]; Day 1): ~42%
- mean Cmax with food compared to fasted state ([3]; Day 1): 59%
- mean AUC0-24 with food compared to fasted state ([3]; Day 14): ~20%
- mean Cmax with food compared to fasted state ([3]; Day 14): 43%
- AUC0-24 [3, 12]: 3180 ± 925 ng·h/mL
- Cmax [3, 12]: 346 ± 139 ng/mL
- Ctrough [3, 12]: 62.7 ± 12.4 ng/mL
- AUC, mean ± SD (QTc interval [4]): 6800 ± 2300 ng·h/mL
- binding to β1-AR (β1-AR): does not bind
- fraction unbound (Plasma protein binding): 0.49
- bound to human plasma proteins (human plasma proteins): approximately 49%
- tolerability (healthy subjects; Phase 1 program, single 2 to 600 mg, multiple 25 to 400 mg): generally well tolerated
- orthostatic AEs (healthy subjects; vibegron 100 mg coadministered in essential hypertension on metoprolol or amlodipine): no occurrences of orthostatic AEs
- higher Cmax in elderly and females than healthy young males [5]: 50-70%
- reduction in Cmax ([5]; dose decreased from 100 mg to 75 mg): ~40%
- AUC of 75 mg lower than 200 mg single dose ([5]; estimation): ~2 fold
- AUC of 75 mg lower than 400 mg single dose ([5]; estimation): ~6 fold
- Cmax of 75 mg lower than 200 mg single dose ([5]; estimation): approximately 3.3 fold
- Cmax of 75 mg lower than 400 mg single dose ([5]; estimation): ~9.2 fold
- increase in Cmax ([5]; increase in dose from 50 to 100 mg): ~3 fold
- higher exposure ([5]; subjects receiving a potent CYP3A/P-gp inhibitor): ~2 fold
- mean increase in AUC vs normal renal function ([5]; subjects with moderate renal impairment): 1.6 fold
- AUC0-inf higher than healthy matched controls ([6]; mild renal impairment): 49%
- CLR reduced compared to healthy matched controls ([6]; mild renal impairment): 39%
- Cmax higher than healthy matched controls ([6]; mild renal impairment): 96%
- AUC0-inf higher than healthy matched controls ([6]; moderate renal impairment): 106%
- CLR reduced compared to healthy matched controls ([6]; moderate renal impairment): 65%
- Cmax higher than healthy matched controls ([6]; moderate renal impairment): 68%
- AUC0-inf higher than healthy matched controls ([6]; severe renal impairment): 83%
- CLR reduced compared to healthy matched controls ([6]; severe renal impairment): 82%
- Cmax higher than healthy matched controls ([6]; severe renal impairment): 42%
- AUC0-inf, geometric least squares mean [6, 13]: 1540 ng·h/mL
- Apparent terminal t1/2, geometric mean (% geometric CV) [6, 13]: 98.8 (13.9) hr
- CL/F, geometric least squares mean [6, 13]: 64.9 L/h
- CLR, geometric mean (% geometric CV) [6, 13]: 10.4 (20.2) L/hr
- Cmax, geometric least squares mean [6, 13]: 107 ng/mL
- Fe[urine]48 hr, geometric mean (% geometric CV) [6, 13]: 7.9% and 7.9 (43.0) %
- Apparent terminal t1/2, geometric mean (% geometric CV) ([6]; mild renal impairment): 96.2 (11.5) hr
- CL/F, geometric least squares mean ([6]; mild renal impairment): 43.6 L/h
- CLR, geometric mean (% geometric CV) ([6]; mild renal impairment): 6.3 (31.1)^c L/hr
- Cmax, geometric least squares mean ([6]; mild renal impairment): 210 ng/mL
- Fe[urine]48 hr, geometric mean (% geometric CV) ([6]; mild renal impairment): 8.5% and 8.5 (43.9)^c %
- AUC0-inf, geometric least squares mean ([6]; moderate renal impairment): 3170 ng·h/mL
- Apparent terminal t1/2, geometric mean (% geometric CV) ([6]; moderate renal impairment): 108 (21.0) hr
- CL/F, geometric least squares mean ([6]; moderate renal impairment): 31.5 L/h
- CLR, geometric mean (% geometric CV) ([6]; moderate renal impairment): 3.6 (34.5) L/hr
- Fe[urine]48 hr, geometric mean (% geometric CV) ([6]; moderate renal impairment): 5.5% and 5.5 (53.2) %
- Tmax (median) ([6]; moderate renal impairment): 1.3 h
- AUC0-inf, geometric least squares mean ([6]; severe renal impairment): 2820 ng·h/mL
- Apparent terminal t1/2, geometric mean (% geometric CV) ([6]; severe renal impairment): 131 (10.0) hr
- CL/F, geometric least squares mean ([6]; severe renal impairment): 35.5 L/h
- CLR, geometric mean (% geometric CV) ([6]; severe renal impairment): 1.9 (30.9) L/hr
- Cmax, geometric least squares mean ([6]; severe renal impairment): 152 ng/mL
- Fe[urine]48 hr, geometric mean (% geometric CV) ([6]; severe renal impairment): 2.1% and 2.1 (57.6) %
- Tmax (median) ([6]; severe renal impairment): 0.5 h
- CL/F increase per one mL/min/1.73 m^2 increase in eGFR ([6]; slope of linear regression): ~0.8%
- long-term efficacy (patients with OAB): reduced episodes of micturitions, UUI episodes, total incontinence episodes, and urgency episodes
- dose recovered in feces [7]: approximately 59%
- dose recovered in urine [7]: ~20%
